Source: article PMC9127750, “Structure-based design of CDC42 effector interaction inhibitors for the treatment of cancer” (Cell reports, 2022)

Tested on: WM3248 melanoma cells, 486 antibodies
Assay: Reverse phase protein arrays (RPPA);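 on RPPA AceCS1.R.V: ratio of treated to vehicle (0 µM) normalized linear protein signal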;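 on RPPA Akt1 pS473.R.V: ratio of treated to vehicle (0 µM) normalized linear protein signal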;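 on RPPA Akt1.R.V: ratio of treated to vehicle (0 µM) normalized linear protein signal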;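 on RPPA Ambra1 pS52.R.C: ratio of treated to vehicle (0 µM) normalized linear protein signal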;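 on RPPA Atg5.R.C: ratio of treated to vehicle (0 µM) normalized linear protein signal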;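 on RPPA Bim.R.V: ratio of treated to vehicle (0 µM) normalized linear protein signal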
Format: cell-based, Human
Settings: 20 uM
Source text: Pellets were snap frozen in liquid nitrogen and shipped to MD Anderson Cancer Center core RPPA facility for RPPA analysis (Table S5). Three biological replicates for each sample were generated.
Nomenclatures on the RPPA heatmaps: name_of_antibody.species_of_antibody.status_of_antibody. V - antibody validated; C - validation of antibody in progress; Q - antibody nonspecific; E – under evaluation; antibodies raised in M - mouse, G - goat, R - rabbit, or T - rat.

Structure (SMILES): CN(C)c1cccc(Nc2cc(-c3ccccc3)nc(C3CCNCC3)n2)c1 [ARN22089, N1,N1-dimethyl-N3-(6-phenyl-2-(piperidin-4-yl)pyrimidin-4-yl)benzene-1,3-diamine]
- RPPA ATP5A.M.C (D.1): 1.056
- RPPA ATP5H.R.V (D.1): 1.455
- RPPA ATR.R.V (D.1): 1.004
- RPPA ATRX.R.C (D.1): 0.831
- RPPA AceCS1.R.V (D.1): 1.063
- RPPA Akt1.R.V (D.1): 0.712
- RPPA Akt1_pS473.R.V (D.1): 0.750
- RPPA Akt2.R.V (D.1): 0.746
- RPPA Akt2_pS474.R.C (D.1): 0.847
- RPPA Akt.R.V (D.1): 0.884
- RPPA Akt_pS473.R.V (D.1): 0.449
- RPPA Ambra1_pS52.R.C (D.1): 1.082
- RPPA Annexin.I.M.V (D.1): 0.994
- RPPA Annexin.VII.M.V (D.1): 1.057
- RPPA Atg4B.R.C (D.1): 0.789
- RPPA Atg5.R.C (D.1): 1.025
- RPPA Atg7.R.V (D.1): 0.657
- RPPA Aurora.A.R.C (D.1): 1.945
- RPPA Aurora.ABC_pT288_pT232_pT198.R.C (D.1): 0.842
- RPPA Aurora.B.R.V (D.1): 1.775
- RPPA Axl.R.V (D.1): 0.594
- RPPA B7.H3.R.C (D.1): 0.996
- RPPA B7.H4.R.C (D.1): 0.838
- RPPA B.Raf.R.C (D.1): 0.786
- RPPA B.Raf_pS445.R.V (D.1): 0.752
- RPPA BAP1.M.V (D.1): 1.051
- RPPA BCL2A1.R.V (D.1): 0.907
- RPPA BMK1.Erk5_pT218_Y220.R.V (D.1): 1.016
- RPPA BRCA1.M.C (D.1): 1.165
- RPPA BRD4.R.V (D.1): 1.680
- RPPA Bad_pS112.R.V (D.1): 0.993
- RPPA Bak.R.C (D.1): 1.006
- RPPA Bcl2.R.C (D.1): 1.280
- RPPA Bcl.xL.R.V (D.1): 0.996
- RPPA Beclin.R.C (D.1): 1.111
- RPPA BiP.GRP78.M.C (D.1): 1.051
- RPPA Bid.R.C (D.1): 1.015
- RPPA Bim.R.V (D.1): 1.098
- RPPA X4E.BP1.R.V (D.1): 0.866
- RPPA X4E.BP1_pS65.R.V (D.1): 0.834
- RPPA X4E.BP1_pT37_T46.R.V (D.1): 0.918
- RPPA X14.3.3.zeta.R.V (D.1): 1.017
- RPPA X14.3.3βR.V (D.1): 1.192
- RPPA X53BP1.R.V (D.1): 1.055
- RPPA b.Actin.R.C (D.1): 1.239
- RPPA b.Catenin.R.V (D.1): 1.006
- RPPA b.Catenin_pT41_S45.R.V (D.1): 1.014
- RPPA c.Abl.R.V (D.1): 0.991
- RPPA c.Abl_pY412.R.C (D.1): 0.922
- RPPA c.IAP2.R.C (D.1): 1.019
- RPPA PREX1.R.V Average (average of 3): 0.950
- RPPA PTEN.R.V Average (average of 3): 1.082
- RPPA PTPN12.R.V Average (average of 3): 1.211
- RPPA PYGB.R.V Average (average of 3): 1.080
- RPPA PYGM.M.C Average (average of 3): 0.983
- RPPA Puma.R.C Average (average of 3): 1.011
- RPPA RBM15.R.V Average (average of 3): 0.995
- RPPA RIP3.R.C Average (average of 3): 0.996
- RPPA RIP.R.C Average (average of 3): 1.022
- RPPA RPA32.R.V Average (average of 3): 1.078
- RPPA RPA32_pS4_S8.R.C Average (average of 3): 1.531
- RPPA RRM1.R.C Average (average of 3): 0.946
- RPPA RRM2.R.C Average (average of 3): 0.922
- RPPA RSK1.R.V Average (average of 3): 0.941
- RPPA RSK.R.C Average (average of 3): 0.973
- RPPA Rab11.R.C Average (average of 3): 1.059
- RPPA Rad23A.R.C Average (average of 3): 0.946
- RPPA Rad50.R.V Average (average of 3): 1.053
- RPPA Rad51.R.C Average (average of 3): 0.940
- RPPA Raptor.R.V Average (average of 3): 0.967
- RPPA Rb.M.Q Average (average of 3): 0.977
- RPPA Rb_pS807_S811.R.V Average (average of 3): 0.907
- RPPA Rheb.M.C Average (average of 3): 1.147
- RPPA Rictor.R.C Average (average of 3): 1.017
- RPPA Rictor_pT1135.R.V Average (average of 3): 1.076
- RPPA S6.M.V Average (average of 3): 0.982
- RPPA S6_pS235_S236.R.V Average (average of 3): 0.339
- RPPA S6_pS240_S244.R.V Average (average of 3): 0.423
- RPPA SCD.M.V Average (average of 3): 0.961
- RPPA SDHA.R.V Average (average of 3): 1.098
- RPPA SF2.R.V Average (average of 3): 1.008
- RPPA SFRP1.R.V Average (average of 3): 0.986
